Earlier results in patent US20120100040A1, “COMPOSITION FOR S[…]” (Bakteriefritt AS, priority 2009, published 2012).

Conditions: rat, orally

CS(C)(=O)=O [dimethylsulfone]
LD50: > 5000 mg/kg
